Reference: PubChem BioAssay AID330 (DTP/NCI, 2004)
Toxic doses and inconclusive results are not listed. Rule for the calls: active = survival T/C of 150% or more; inactive = T/C below 125% in these data.

Test system: P388 leukemia ip, CD2F1 mice, survival T/C
Assay: NCI In Vivo Anticancer Drug Screen. Data for tumor model P388 Leukemia (intraperitoneal) in CD2F1 (CDF1) mice
Details: endpoint: median survival time, higher = longer survival
Outline: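 Mice carrying the transplanted tumor received test compound or vehicle. Survival was recorded in each group, and the value is the treated-group measurement divided by that of the vehicle-treated control group.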

[1] = dose: 50.0 mg/kg/injection, schedule: Q01DX005 (ip), vehicle: Klucel (hydroxypropylcellulose) (HPC)
[2] = dose: 100.0 mg/kg/injection, schedule: Q01DX005 (ip), vehicle: Klucel (hydroxypropylcellulose) (HPC)
[3] = dose: 200.0 mg/kg/injection, schedule: Q01DX005 (ip), vehicle: Klucel (hydroxypropylcellulose) (HPC)

Measured: T/C

Cc1cc2c3ccc(C)[n+](C)c3ccc2n1C
inactive: dose: 1.25 mg/kg/injection, schedule: Q01DX010 (ip), vehicle: saline 100 % of control | dose: 2.5 mg/kg/injection, schedule: Q01DX010 (ip), vehicle: saline 105 % of control

COC(=O)C#CC(N)=O
inactive: dose: 1.25 mg/kg/injection, schedule: Q01DX009 (ip), vehicle: saline sonified 113 % of control | dose: 1.65 mg/kg/injection, schedule: Q01DX009 (ip), vehicle: saline with Tween-80 118 % of control | dose: 2.5 mg/kg/injection, schedule: Q01DX009 (ip), vehicle: saline with Tween-80 118 % of control | dose: 3.75 mg/kg/injection, schedule: Q01DX009 (ip), vehicle: saline with Tween-80 118 % of control | dose: 5.0 mg/kg/injection, schedule: Q01DX009 (ip), vehicle: saline sonified 122 % of control

CN1C(=O)OC(c2ccc(Cl)cc2)C1=O (stereo not drawn)
inactive: dose: 25.0 mg/kg/injection, schedule: Q01DX005 (ip), vehicle: Klucel (hydroxypropylcellulose) (HPC) 100 % of control | [1] 100 % of control | [2] 107 % of control | [3] 100 % of control

c1ccc2sc(SN3CCOCC3)nc2c1
inactive: dose: 100.0 mg/kg/injection, schedule: Q04DX003 (ip), vehicle: saline with Tween-80 87 % of control | dose: 200.0 mg/kg/injection, schedule: Q04DX003 (ip), vehicle: saline with Tween-80 100 % of control | dose: 400.0 mg/kg/injection, schedule: Q04DX003 (ip), vehicle: saline with Tween-80 95 % of control

O=C1CN(CCCCl)CC(=O)N2Cc3ccccc3CN12
inactive: dose: 50.0 mg/kg/injection, schedule: Q01DX005 (ip), vehicle: saline with Tween-80 106 % of control | dose: 100.0 mg/kg/injection, schedule: Q01DX005 (ip), vehicle: saline with Tween-80 101 % of control | dose: 200.0 mg/kg/injection, schedule: Q01DX005 (ip), vehicle: saline with Tween-80 99 % of control

O=C1CCC(=O)N1CCCCCCN1C(=O)CCC1=O
inactive: [1] 90 % of control | [2] 99 % of control | [3] 98 % of control | dose: 400.0 mg/kg/injection, schedule: Q01DX005 (ip), vehicle: Klucel (hydroxypropylcellulose) (HPC) 89 % of control

N#C/C(=C/c1ccco1)c1ccccc1
inactive: dose: 12.5 mg/kg/injection, schedule: Q01DX009 (ip), vehicle: Klucel (hydroxypropylcellulose) (HPC) 95 % of control | dose: 25.0 mg/kg/injection, schedule: Q01DX009 (ip), vehicle: Klucel (hydroxypropylcellulose) (HPC) 88 % of control
